Data published in US20250025581A1, “Medical Imaging of Glycogen Synthase Kinase-3 with a PET Probe” (Mayo Foundation for Medical Education and Research, priority 2021, published 2025).
Counter-ions that a name gives are not always drawn.

Tests used:
[1] = serum stability by rad-TLC, mouse serum; type: in vitro ADME; conditions: 37° C., up to 120 min
Protocol: (§1) The stability of both the probes in mouse and human serums was also measured along with a control at 0 min, 30 min, 60 min, and 120 min using rad-TLC as discussed later below. It was observed that [^18F]F-CNBI was stable >92% up to 120 min.
(§2) Serum Stability Analysis: Stability analysis of [^18F]F-CNBI and [^18F]F-CNPIFE were assessed in human and mouse serums. To perform this stability assay, 100 μL of [^18F]F-CNBI (˜0.74 MBq) or 100 μL of [^18F]F-CNPIFE (˜3.70 MBq) was added to 100 μL of human or mouse serum in a microcentrifuge tube. The resultant mixture of radiotracer and serum was incubated at 37° C. for 120 min. To assess the stability of the probes, a small aliquot (˜0.5 μL) was taken out from the mixture in duplicate at 0 min, 30 min, 60 min and 120 min during incubation, and analyzed on a rad-TLC using 1:9 methanol: chloroform as a mobile phase using i-TLC to estimate the radio-stability of [^18F]F-CNBI or [^18F]F-CNPIFE at different time points post-incubation. For control, 100 μL of [^18F]F-CNBI (˜0.74 MBq) was taken in a microcentrifuge without dilution or 100 μL of [^18F]F-CNPIFE (˜3.70 MBq) was added to 100 μL deionized water in a microcentrifuge tube. Both the controls, were incubated at 25° C. for 120 min. At 0 min, 30 min, 60 min and 120 min during incubation, small aliquot (˜0.5 μL) was taken from the controls in duplicate and rad-TLC was performed as mentioned above. […]

[2] = in vivo PET imaging in mice (Example 1), brain uptake; conditions: mouse brain
Protocol: Initial in vivo study in mouse model: Initial in vivo PET imaging studies were conducted in mice at different time points. The uptake of the [^18F]CNPIFE (28) probe is expressed as a standard uptake value (SUV).
In vivo study in mouse model: In vivo PET imaging studies were conducted in mice at different time points to compare the SUV for [^18F]—CNBI (4) and [^18F]CNPIFE (28).

[3] = dynamic micro-PET imaging and biodistribution in normal FVB/NJ mice with and without self-blocking; type: in vivo, mouse; conditions: for effect of co-administration of the reference compound on brain uptake: self-blocking study
Protocol: To pursue this, [^18F]F-CNBI and [^18F]F-CNPIFE were evaluated in the normal FVB/NJ mouse model.
The uptake of [^18F]F-CNPIFE (SUV=0.48±0.09; n=5) in brain was 2.5-fold higher than [^18F]F-CNBI (SUV=0.19±0.06; n=6) as early as 5 min post-injection. This difference increased with time: 4.8-fold higher SUV for [^18F]F-CNPIFE (SUV=0.48±0.11; n=5) as compared to [^18F]F-CNBI (SUV=0.10±0.01; n=6) at 15 min which further increased to 9.5-fold difference at 30 min (see FIG. 21). […] The differences in uptakes of [^18F]F-CNPIFE and [^18F]F-CNBI in the brain and liver likely relate to the difference in their chemical structures (compounds 4 and 28). Greater accumulation of [^18F]F-CNPIFE in the brain relative to [^18F]F-CNBI was consistent with its higher BBB permeability value indicated by the PAMPA assay (see Table 1).
To further understand the characteristics of the uptake of these PET probes in the brain, self-blocking studies with corresponding non-radiolabeled reference compounds were performed. In general, co-administration of [^18F]F-CNBI and [^18F]F-CNPIFE with their corresponding reference compounds, [^19F]F-CNBI and [^19F]F-CNPIFE, respectively, were expected to decrease the uptake of radiotracers in the brain. […] However, a non-significant trend in increase in brain uptake of [^18F]F-CNPIFE can be noticed on coadministration of nonradioactive [^19F]F-CNPIFE with the PET probe [^18F]F-CNPIFE. […] We hypothesize that enhanced brain uptake with additional administration of nonradioactive form of the tracer could be attributed to the binding of [^19F]F-CNBI with normally expressed GSK-3α/β in extremities and allowing relatively greater levels of [^18F]F-CNBI to be taken up by the brain as a peripheral effect.
In vivo study: Biodistribution of [^18F]F-CNBI and [^18F]F-CNPIFE were assessed in brain and in liver of normal FVB/NJ mice (The Jackson Laboratory, Bar Harbor, ME) with and without co administration of unlabeled reference compounds [^19F]F-CNBI (200 μg and 300 μg) and [^19F]F-CNPIFE (25 μg) in separate groups of animals. Stock solutions of [^19F]F-CNPIFE (26 mM) and [^19F]F-CNBI (25 mM) were prepared in the dimethyl sulfoxide (DMSO). For blocking studies with [^19F]F-CNBI, 200 μg (530.5 nmol) or 300 μg (795.8 nmol) of [^19F]F-CNBI (nonradioactive reference compound) was added to the PET probe [^18F]F-CNBI self-containing ˜9.3 nmol [^19F]F-CNBI in the final formulation volume of ˜100 μL. For blocking with [^19F]F-CNPIFE, 25 μg (59 nmol) of [^19F]F-CNPIFE was added to the PET probe [^18F]F-CNPIFE self-containing to 0.8-1.0 nmol of [^19F]F-CNPIFE in the final formulation volume of ˜100 μL. The final formulation containing both PET probes and their nonradioactive reference compounds were prepared in 0.9% saline isotonic solution before tail vein injection. Immediately after the tail vein injection of the radiotracers, animals were subjected to a dynamic micro-PET imaging for 30 min using a small animal micro-PET/X-ray system (Sofie BioSystems Genesys4, Culver City, CA, USA). The PET images were visualized and analyzed using image analysis software, Amide's a Medical Image Data Examiner—AMIDE [Ref. 29]. PET images at 5 min, 10 min, 15 min, 20 min, 25 min, and 30 min post-injection were normalized to the standardized uptake value (SUV), where SUV=(Concentration of dose in tissue (μCi/g)/(Injected dose (μCi)/Weight of the animal (g)) and presented as coronal, transverse and sagittal sectional image.

[4] = serum stability by rad-TLC, human serum; type: in vitro ADME; conditions: 37° C., up to 120 min
Protocol: as §1, §2

[5] = PAMPA, pH 7.4
From the text: The blood brain permeability was expressed as permeability coefficient, P (10-6 cm/s) and −log Pe.

[6] = tested on: GSK-3; assay: binding affinity comparison with previous compounds, isoform not stated; type: biochemical; conditions: relative to [18F]CNBI (4)
Protocol: The inhibitory effect of [^18F]—CNBI (4) and [^18F]—CNPI (25) (as synthesized as described above) and [^18F]CNPIFE (28) (as synthesized as shown in FIG. 10) on kinase activity was measured. […] Determination of IC50 was determined as follows. The phosphorylation of glycogen synthase substrate by human glycogen synthase kinase α (GSK-3α) or human glycogen synthase kinase β (GSK-3β) was performed using human GSK-3α/β Kinase Enzyme Assay System (Promega Corporation, Madison, WI) in the presence of GSK-3α/β probes (0-400 nM). The phosphorylation of glycogen synthase substrate was quantified using ADP-Glo™ Kinase assay system (Promega Corporation, Madison, WI). IC50 of GSK-3α/β probes was determined from resulting dose response curve and IC50 curve fitting tool of GraphPad Prism 10 (GraphPad Software, San Diego, CA). (See Stein et al., “Comparison of [^18F]F-CNBI and [^18F]F-CNPIFE as Positron Emission Tomography Probes for Noninvasive Imaging of Glycogen Synthase Kinase-3 in Normal Mice”, Eur. J. Org. Chem. 2022).
It can be seen that [^18F]CNPIFE (28) has better purity (about 99% purity), better binding affinity (6×), and better blood brain barrier permeability (6×) compared to previous compounds such as [^18F]CNBI (4). The standard uptake is very close to 1, and to the gold standard value for [N-Methyl-^11C]2-(4′-methylaminophenyl)-6-hydroxybenzothiazole also known as [^11C] […]

[7] = tested on: various tau isoforms and other proteins involved in neurodegeneration; assay: affinity towards tau isoforms and other proteins involved in neurodegeneration; type: binding
Protocol: The affinity of [^18F]CNPIFE (28) towards various tau isoforms and other proteins involved in neurodegeneration was measured.

[8] = FVB/NJ mice, 5 min post-injection
[9] = FVB/NJ mice, 15 min post-injection
[10] = FVB/NJ mice, 30 min post-injection, without coadministration of reference compound

fold difference of brain uptake with blocking (coadministration of [19F]F-CNBI) ([3]; 30 min post-injection, 200-300 μg [19F]F-CNBI) | brain uptake (SUV) ([3]; 30 min post-injection, co-injected with 300 μg [19F]F-CNBI) | brain uptake (SUV) ([3]; 30 min post-injection, coadministration of 200 μg [19F]F-CNBI) | liver uptake (SUV) ([3]; co-injected with 200 μg [19F]F-CNBI) | liver uptake (SUV) ([3]; co-injected with 300 μg [19F]F-CNBI) | liver uptake (SUV) ([3]; same animals as brain 30 min, without coadministration of [19F]F-CNBI) | Permeability coefficient, P (10^−6 cm/s) Average ± SD [5] | Structure (SMILES) | stability in mouse serum [1] [%] | uptake in the brain (SUV) [2] [SUV] | brain uptake (SUV) [3, 8] [SUV] | brain uptake (SUV) [3, 9] [SUV] | brain uptake (SUV) [3, 10] [SUV] | effect of co-administration of the reference compound on brain uptake [3] | stability in human serum [4] [%] | better binding affinity compared to previous compounds such as [18F]CNBI (4) [6] [×] | brain uptake, fold higher than [18F]F-CNBI ([3]; 5 min post-injection) [fold] | brain uptake, fold higher than [18F]F-CNBI ([3]; 15 min post-injection) [fold] | brain uptake, fold higher than [18F]F-CNBI ([3]; 30 min post-injection) [fold] | brain uptake (SUV) ([3]; 30 min post-injection, coadministration of 25 μg [19F]F-CNPIFE) | binding with various tau isoforms and other proteins involved in neurodegeneration [7]
2.5-3.0 fold | 0.24±0.01 | 0.20±0.01 | 4.93±0.52 | 3.89±0.60 | 10.15±2.87 | – | O=C(Nc1cnccc1-c1ccc([18F])nc1)c1ccnc(NC(=O)C2CC2)c1 [[^18F]F-CNBI, 2-(cyclopropanecarboxamido)-N-(6-(fluoro-^18F)-[3,4′-bipyridin]-3′-yl)isonicotinamide] | > 92 | 0.4 | 0.19±0.06 | 0.10±0.01 | 0.08±0.005 | significant increase | > 92 | – | – | – | – | – | –
– | – | – | – | – | – | 32±1 10^−6 cm/s | CC(C)NCC(O)COc1cccc2ccccc12 (stereo not drawn) [Propranolol HCl] | – | – | – | – | – | – | – | – | – | – | – | – | –
– | – | – | – | – | – | – | O=C(Nc1cnccc1-c1ccc(OCC[18F])cc1)c1ccnc(NC(=O)C2CC2)c1 [[^18F]F-CNPIFE] | > 83 | 0.9 | 0.48±0.09 | 0.48±0.11 | 0.76±0.16 | no significant difference | > 83 | 6 | 2.5 | 4.8 | 9.5 | 0.88±0.14 | no to minimum binding
